Results taken from article PMC7539012, “Hyperphosphorylated tau aggregation and cytotoxicity modulators screen identified prescription drugs linked to Alzheimer's disease and cognitive functions” (Scientific Reports, 2020).
Where a name gives a salt, the structure may show the parent alone. Read-outs that look alike come from different tables or passages of the source.

System: T1, 1N4R p-tau
T1 construct: made in house; host or cells: E. coli (PIMAX system)
Test: p-tau aggregation modulator screen of 1280-compound library (ThS fluorescence net change over 16 h);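 also: 30 µM compound with 6 µM p-tau over 16 h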
Type: biochemical

[1] = p-tau aggregation modulator screen of the compound library, ThS fluorescence net change
[2] = 1280-compound library screen, ThS fluorescence net change over 16 h
[3] = 1280-compound library screen, […]
[4] = p-tau aggregation modulator screen of 1280-compound library, ThS fluorescence net change
[5] = p-tau aggregation modulator screen of 1280-compound library, […]
[6] = library screen, ThS fluorescence net change over 16 h with p-tau

Cn1c([N+](=O)[O-])cnc1COC(N)=O [Ronidazole]
ThS net change [1]: 445

CCCN(CCC)CCc1cccc2c1CC(=O)N2 [Ropinirole HCl]
ThS net change [2]: 388

CN(CCOc1ccc(CC2SC(=O)NC2=O)cc1)c1ccccn1.Cl (centres unmarked) [Rosiglitazone Hydrochloride]
ThS net change [1]: 476

CC(=O)OCC(=O)NCCCOc1cccc(CN2CCCCC2)c1 [Roxatidine Acetate HCl]
ThS net change [3]: 411

CC[C@H]1OC(=O)[C@H](C)[C@@H](O[C@H]2C[C@@](C)(OC)[C@@H](O)[C@H](C)O2)[C@H](C)[C@@H](O[C@@H]2O[C@H](C)C[C@H](N(C)C)[C@H]2O)[C@](C)(O)C[C@@H](C)/C(=N\OCOCCOC)[C@H](C)[C@@H](O)[C@]1(C)O [Roxithromycin]
ThS net change [4]: 366

CN1CCN(c2c(F)cc3c(=O)c(C(=O)O)cn4c3c2SCC4)CC1 [Rufloxacin]
ThS net change [1]: 476

CCc1cc(Cl)c(OC)c(C(=O)NC[C@@H]2CCCN2CC)c1O.Cl [S(-)Eticlopride hydrochloride]
ThS net change [4]: 329

CC(C)Cc1ccc([C@H](C)C(=O)O)cc1 [S-(+)-ibuprofen]
ThS net change [2]: 406

CC(C)(C)NCC(O)c1ccc(O)c(CO)c1 (centres unmarked) [Salbutamol]
ThS net change [4]: 367

OCc1cc(C(O)CNCCCCCCOCCCCc2ccccc2)ccc1O (centres unmarked) [Salmeterol]
ThS net change [4]: 358

CC(C)(C)NC(=O)[C@@H]1C[C@@H]2CCCC[C@@H]2CN1C[C@@H](O)[C@H](Cc1ccccc1)NC(=O)[C@H](CC(N)=O)NC(=O)c1ccc2ccccc2n1 [Saquinavir mesylate]
ThS net change [1]: 568

O=C(O)c1cn(-c2ccc(F)cc2)c2cc(N3CCNCC3)c(F)cc2c1=O [Sarafloxacin]
ThS net change [4]: 332

Br.C[N+]1([O-])[C@@H]2C[C@@H](OC(=O)[C@H](CO)c3ccccc3)C[C@H]1[C@@H]1O[C@@H]12 (some centres unmarked) [Scopolamin-N-oxide hydrobromide]
ThS net change [5]: 345

CN1[C@@H]2C[C@@H](OC(=O)[C@H](CO)c3ccccc3)C[C@H]1[C@@H]1O[C@@H]12.Cl [Scopolamine hydrochloride]
ThS net change: 389

Cc1ncc([N+](=O)[O-])n1CC(C)O (centres unmarked) [Secnidazole]
ThS net change [6]: 327

C#CCN(C)[C@H](C)Cc1ccccc1 [Selegiline hydrochloride]
ThS net change [3]: 388

NCCc1c[nH]c2ccc(O)cc12 [Serotonin hydrochloride]
ThS net change [2]: 412

Clc1ccc(C(Cn2ccnc2)OCc2csc3c(Cl)cccc23)c(Cl)c1 (centres unmarked) [Sertaconazole nitrate]
ThS net change [5]: 344

O=C1NCCN1CCN1CCC(c2cn(-c3ccc(F)cc3)c3ccc(Cl)cc23)CC1 [Sertindole]
ThS net change [1]: 434

CN[C@H]1CC[C@@H](c2ccc(Cl)c(Cl)c2)c2ccccc21 [Sertraline]
ThS net change [1]: 428

CC(C)CC(N(C)C)C1(c2ccc(Cl)cc2)CCC1.Cl (centres unmarked) [Sibutramine HCl]
ThS net change [5]: 347

CCCc1nn(C)c2c(=O)[nH]c(-c3cc(S(=O)(=O)N4CCN(C)CC4)ccc3OCC)nc12 [Sildenafil]
ThS net change [1]: 461

C[C@H](Cc1cc2c(c(C(N)=O)c1)N(CCCO)CC2)NCCOc1ccccc1OCC(F)(F)F [Silodosin]
ThS net change [1]: 478

CCC(C)(C)C(=O)O[C@H]1C[C@@H](C)C=C2C=C[C@H](C)[C@H](CC[C@@H]3C[C@@H](O)CC(=O)O3)[C@H]21 [Simvastatin]
ThS net change [1]: 458

CN[C@@H]1[C@@H](O)[C@@H](O[C@@H]2[C@@H](O)[C@H](O[C@H]3OC(CN)=CC[C@H]3N)[C@@H](N)C[C@H]2N)OC[C@]1(C)O [Sisomicin sulfate]
ThS net change [3]: 381

CC(C)NCC(O)c1ccc(NS(C)(=O)=O)cc1 (centres unmarked) [Sotalol hydrochloride]
ThS net change [2]: 404

CC(=O)N[C@@H](CC(=O)N[C@@H](CCC(=O)O)C(=O)O)C(=O)O [Spaglumic acid]
ThS net change [1]: 425

C[C@@H]1CN(c2c(F)c(N)c3c(=O)c(C(=O)O)cn(C4CC4)c3c2F)C[C@H](C)N1 [Sparfloxacin]
ThS net change [2]: 403

CN[C@@H]1[C@H](O)[C@H](NC)[C@H]2O[C@@]3(O)C(=O)C[C@@H](C)O[C@H]3O[C@@H]2[C@H]1O.Cl.Cl [Spectinomycin dihydrochloride]
ThS net change [4]: 361

O=C(CCCN1CCC2(CC1)C(=O)NCN2c1ccccc1)c1ccc(F)cc1 [Spiperone]
ThS net change [6]: 313

CC(=O)S[C@@H]1CC2=CC(=O)CC[C@]2(C)[C@H]2CC[C@@]3(C)[C@@H](CC[C@@]34CCC(=O)O4)[C@H]12 [Spironolactone]
ThS net change [4]: 372

C[C@]12Cc3c[nH]nc3C[C@@H]1CC[C@@H]1[C@@H]2CC[C@@]2(C)[C@H]1CC[C@]2(C)O [Stanozolol]
ThS net change [3]: 403

Cc1cn([C@H]2C=C[C@@H](CO)O2)c(=O)[nH]c1=O [Stavudine]
ThS net change [1]: 428

[H]/N=C(/N)N[C@H]1[C@H](O)[C@@H](O)[C@H](O[C@@H]2O[C@@H](C)[C@](O)(C=O)[C@H]2O[C@@H]2O[C@@H](CO)[C@H](O)[C@@H](O)[C@@H]2NC)[C@@H](N/C(N)=N\[H])[C@@H]1O [Streptomycin sulfate]
ThS net change [2]: 397

O=C(O)CCC(=O)Nc1ccc(S(=O)(=O)Nc2nccs2)cc1 [Succinylsulfathiazole]
ThS net change [2]: 382

CC1(C)[C@H](C(=O)O)N2C(=O)C[C@H]2S1(=O)=O [Sulbactam]
ThS net change: 463

Clc1ccc(CSC(Cn2ccnc2)c2ccc(Cl)cc2Cl)cc1 (centres unmarked) [Sulconazole nitrate]
ThS net change [5]: 336

Nc1ccc(S(=O)(=O)NC(=O)c2ccccc2)cc1 [Sulfabenzamide]
ThS net change [4]: 347

CC(=O)[N-]S(=O)(=O)c1ccc(N)cc1.O.[Na+] [Sulfacetamide sodic hydrate]
ThS net change [3]: 393

Nc1ccc(S(=O)(=O)Nc2ccc(Cl)nn2)cc1 [Sulfachloropyridazine]
ThS net change [1]: 413

Nc1ccc(S(=O)(=O)Nc2ncccn2)cc1 [Sulfadiazine]
ThS net change [2]: 379

COc1cc(NS(=O)(=O)c2ccc(N)cc2)nc(OC)n1 [Sulfadimethoxine]
ThS net change [2]: 380

COc1ncnc(NS(=O)(=O)c2ccc(N)cc2)c1OC [Sulfadoxine]
ThS net change [1]: 513

[H]/N=C(/N)NS(=O)(=O)c1ccc(N)cc1 [Sulfaguanidine]
ThS net change [4]: 364

Cc1ccnc(NS(=O)(=O)c2ccc(N)cc2)n1 [Sulfamerazine]
ThS net change [1]: 421

COc1cnc(NS(=O)(=O)c2ccc(N)cc2)nc1 [Sulfameter]
ThS net change [4]: 357

Cc1cc(C)nc([N-]S(=O)(=O)c2ccc(N)cc2)n1.[Na+] [Sulfamethazine sodium salt]
ThS net change [5]: 366

Cc1nnc(NS(=O)(=O)c2ccc(N)cc2)s1 [Sulfamethizole]
ThS net change [4]: 365

Cc1cc(NS(=O)(=O)c2ccc(N)cc2)no1 [Sulfamethoxazole]
ThS net change [4]: 376

COc1ccc(NS(=O)(=O)c2ccc(N)cc2)nn1 [Sulfamethoxypyridazine]
ThS net change [2]: 392

COc1cc(NS(=O)(=O)c2ccc(N)cc2)ncn1 [Sulfamonomethoxine]
ThS net change [1]: 419

Nc1ccc(S(N)(=O)=O)cc1 [Sulfanilamide]
ThS net change [4]: 355

Nc1ccc(S(=O)(=O)Nc2ccnn2-c2ccccc2)cc1 [Sulfaphenazole]
ThS net change [4]: 334

Nc1ccc(S(=O)(=O)Nc2ccccn2)cc1 [Sulfapyridine]
ThS net change [2]: 394

Nc1ccc(S(=O)(=O)[N-]c2cnc3ccccc3n2)cc1.[Na+] [Sulfaquinoxaline sodium salt]
ThS net change [3]: 398

O=C(O)c1cc(/N=N/c2ccc(S(=O)(=O)Nc3ccccn3)cc2)ccc1O [Sulfasalazine]
ThS net change [6]: 282

Nc1ccc(S(=O)(=O)Nc2nccs2)cc1 [Sulfathiazole]
ThS net change [2]: 389

O=C1C(CC[S+]([O-])c2ccccc2)C(=O)N(c2ccccc2)N1c1ccccc1 (centres unmarked) [Sulfinpyrazone]
ThS net change [4]: 342

Cc1noc(NS(=O)(=O)c2ccc(N)cc2)c1C [Sulfisoxazole]
ThS net change [2]: 404

CC1=C(CC(=O)O)c2cc(F)ccc2/C1=C\c1ccc([S+](C)[O-])cc1 (centres unmarked) [Sulindac]
ThS net change [6]: 288

COc1cc([S+](C)[O-])ccc1-c1nc2ncccc2[nH]1 (centres unmarked) [Sulmazole]
ThS net change [2]: 406

CCCCCCCCNC(C)C(O)c1ccc(SC(C)C)cc1 (centres unmarked) [Suloctidil]
ThS net change [4]: 370

CCN1CCCC1CNC(=O)c1cc(S(N)(=O)=O)ccc1OC (centres unmarked) [Sulpiride]
ThS net change [4]: 373

CNS(=O)(=O)Cc1ccc2[nH]cc(CCN(C)C)c2c1 [Sumatriptan succinate]
ThS net change [2]: 393

CC(C(=O)O)c1ccc(C(=O)c2cccs2)cc1 (centres unmarked) [Suprofen]
ThS net change [2]: 391

CCCCC1(COC(=O)CCC(=O)O)C(=O)N(c2ccccc2)N(c2ccccc2)C1=O [Suxibuzone]
ThS net change [2]: 392

Cl.Oc1noc2c1CCNC2 [THIP Hydrochloride]
ThS net change: 448

Nc1c2c(nc3ccccc13)CCCC2 [Tacrine hydrochloride]
ThS net change [2]: 405

CC/C(=C(\c1ccccc1)c1ccc(OCCN(C)C)cc1)c1ccccc1 [Tamoxifen citrate]
ThS net change [5]: 336

C[C@]1(Cn2ccnn2)[C@H](C(=O)O)N2C(=O)C[C@H]2S1(=O)=O [Tazobactam]
ThS net change [1]: 834

O=c1[nH]c(=O)n(C2CCCO2)cc1F (centres unmarked) [Tegafur]
ThS net change [1]: 448

[H]/N=C(/NCCCCC)N/N=C/c1c[nH]c2ccc(OC)cc12 [Tegaserod maleate]
ThS net change [2]: 379

Cc1scc2c1N(C(=O)CN1CCN(C)CC1)c1ccccc1NC2=O [Telenzepine dihydrochloride]
ThS net change [6]: 326

CCCc1nc2c(C)cc(-c3nc4ccccc4n3C)cc2n1Cc1ccc(-c2ccccc2C(=O)O)cc1 [Telmisartan]
ThS net change [1]: 454

Cn1nnc2c(C(N)=O)ncn2c1=O [Temozolomide]
ThS net change [2]: 380

COc1ccc2[nH]c([S+]([O-])Cc3ncc(C)c(OC)c3C)nc2n1 (centres unmarked) [Tenatoprazole]
ThS net change [4]: 371

CN1C(C(=O)Nc2ccccn2)=C(O)c2sccc2S1(=O)=O [Tenoxicam]
ThS net change [1]: 416
